Results reported in patent US20240100065A1, “METHODS FOR TREATING RECEPTOR-INTERACTING PROTEIN KINASE 1-MEDIATED DISEASES” (Genzyme Corporation, priority 2022, published 2024).

Assay: Safety and tolerability (TEAEs, PCSAs, laboratory tests) in phase 1 study Parts 1a, 1b, 2
Assay type: in vivo, healthy adult participants (human)
Conditions: for ALT increase: Part 1b 10 mg
Method: This single ascending dose (SAD) study consisted of three parts: Part 1a, which is a phase 1, randomized, placebo-controlled, double-blind, sequential ascending single dose study; Part 1b, which is phase 1, open-label, sequential single dose study; and Part 2, which is an ascending 14-day repeated oral dose study.
Part 1a evaluated 4 sequential ascending dose levels of Compound 1 under fasted conditions: 10 mg, 20 mg, 30 mg, and 40 mg, each dose per cohort. Participants were fasted overnight for at least 8 hours before the morning dose and 2 hours after dosing.
Part 1b is an open-label study with two single dose levels of Compound 1, previously tested for safety/tolerability in SAD cohorts of Part 1a, were selected (10 mg and 40 mg) and sequentially administered under a fed condition, each dose per cohort. Participants were fasted overnight for at least 8 hours, and then fed with a light breakfast approximately 30 minutes before Compound 1 dosing. In both Part 1a and 1b, all participants received one single dose of treatment.
Part 2 was a randomized, double-blind, placebo-controlled study that evaluated 14-day multiple ascending oral doses of Compound 1 once daily (OD) or twice daily (BID) regimen under fasted conditions: 10 mg QD, 20 mg QD, 15 mg BID, and 20 mg BID. Participants fasted overnight for at least 8 hours before the morning dose and 2 hours after dosing on Day 1 and Day 14. All other morning doses were administered after an overnight fast and approximately 30 minutes before a breakfast snack. Sentinel dosing approach was followed where two of ten participants in each cohort were dosed the first day (n=1, Compound; n=1, placebo) in advance of the full cohort. The remaining 8 participants from each cohort were randomized to receive either Compound or placebo (randomized 7:1) on the following days with at least 48-hour interval from dosing of the sentinel participants, allowing a safety evaluation at the predicted steady state.
Safety and tolerability were assessed by physical examination, neurological examination, monitoring adverse events (AEs) and potentially clinically significant abnormalities (PCSAs) in clinical laboratory tests (hematology, clinical chemistry, and urinalysis), vital signs (body temperature, blood pressure and heart rate), and ECG parameters (heart rate, RR, PR, QRS, QT, QTcF, QTcB intervals) measured in the standard 12-lead ECG or ECGs extracted from 24-hour Holter ECG data.
Safety population included all participants who received at least one dose of study intervention (Compound 1 or placebo). All safety assessments (AEs, laboratory parameters, vital signs) were based on the review of individual values and were summarized using descriptive statistics. Safety analysis was focused on treatment-emergent period, defined as the time from the first investigational medicinal product (IMP) administration up to the end of study visit (included). AEs were coded according to the Medical Dictionary for Regulatory Activities (MedDRA, version 23.1 in Part 1a and Part 1b; version 24 in Part 2). Severity was graded from Grade 1 to 4 according to the Food and Drug Administration (FDA) Guidance for Industry. Number (%) of participants experiencing TEAEs and potentially clinically significant abnormality (PCSAs) in clinical chemistry, vital signs, and ECGs were summarized by dose level group.

For `CC(C)(C(=O)N1CCOc2c(C#N)cncc2C1)C(F)F` [Compound 1, 4-(3,3-difluoro-2,2-dimethyl-propanoyl)-3,5-dihydro-2H-pyrido[3,4-f] [1,4]oxazepine-9-carbonitrile], the “TEAE Eye disorders, participants” value (Part 1a single 40 mg fasted) was 0 n, the “TEAE Fatigue, participants” value (Part 1a single 40 mg fasted) was 0 n and the “TEAE General disorders and administration site conditions, participants” value (Part 1a single 40 mg fasted) was 1 n. For the same compound, the “TEAE Headache, participants” value (Part 1a single 40 mg fasted) was 0 n, the “TEAE Investigations, participants” value (Part 1a single 40 mg fasted) was 0 n and the “TEAE Keratitis, participants” value (Part 1a single 40 mg fasted) was 0 n. The “TEAE Medical device site dermatitis, participants” value (Part 1a single 40 mg fasted) was 0 n, the “TEAE Musculoskeletal and connective tissue disorders, participants” value (Part 1a single 40 mg fasted) was 1 n and the “TEAE Myalgia, participants” value (Part 1a single 40 mg fasted) was 1 (16.7) n. The “TEAE Nervous system disorders, participants” value (shortened to “TEAE Nervous system disorders”) (Part 1a single 40 mg fasted) was 1 n, the “TEAE Presyncope, participants” value (Part 1a single 40 mg fasted) was 0 n and the “TEAE Skin and subcutaneous tissue disorders, participants” value (Part 1a single 40 mg fasted) was 1 n. For the same compound, the “TEAE Skin irritation, participants” value (Part 1a single 40 mg fasted) was 0 n, the “TEAE Tachycardia, participants” value (Part 1a single 40 mg fasted) was 0 n and the “TEAE Thrombophlebitis, participants” value (Part 1a single 40 mg fasted) was 0 n. For the same compound, the “TEAE Vascular disorders, participants” value (Part 1a single 40 mg fasted) was 0 n, the “TEAE Ventricular extrasystoles, participants” value (Part 1a single 40 mg fasted) was 1 n and the “TEAE Vessel puncture site hypoaesthesia, participants” value (Part 1a single 40 mg fasted) was 1 n. For the same compound, the “TEAE Vessel puncture site pain, participants” value (Part 1a single 40 mg fasted) was 1 n, the “PCSAs (hematology, clinical chemistry, vital signs, ECG), relevance” value (Part 1a, all Compound 1 groups) was “not clinically relevant” and the “Participants with at least one TEAE” value (Part 1a, all Compound 1 groups, out of 24) was 9 participants. For the same compound, the “SAEs or AESIs” value (Part 1a, single 10-40 mg fasted) was “no SAEs or AESIs”, the ALT increase (one participant, Day 2) was 1.5 fold ULN and the ALT increase (one participant, Day 7 (end-of-study visit)) was 2.4 fold ULN. The “Participants with at least one TEAE” value (Part 1b overall, out of 12) was 10 participants, the “Any Grade ≥3 TEAE, participants” value (Part 1b single 10 mg fed) was 0 n and the “Any TEAE, participants” value (Part 1b single 10 mg fed) was 4 n. The “Any treatment-emergent AESI, participants” value (shortened to “Any treatment-emergent AESI”) (Part 1b single 10 mg fed) was 1 n, the “Any treatment-emergent SAE, participants” value (Part 1b single 10 mg fed) was 0 n and the “TEAE Alanine aminotransferase increased, participants” value (Part 1b single 10 mg fed) was 1 n. For the same compound, the “TEAE Back pain, participants” value (Part 1b single 10 mg fed) was 1 n, the “TEAE Cerebrospinal fluid leakage, participants” value (Part 1b single 10 mg fed) was 1 n and the “TEAE Coccydynia, participants” value (Part 1b single 10 mg fed) was 0 n. For the same compound, the “TEAE Constipation, participants” value (Part 1b single 10 mg fed) was 0 n, the “TEAE Dizziness, participants” value (Part 1b single 10 mg fed) was 0 n and the “TEAE Gastrointestinal disorders, participants” value (Part 1b single 10 mg fed) was 1 n. For the same compound, the “TEAE Headache, participants” value (Part 1b single 10 mg fed) was 3 n, the “TEAE Investigations, participants” value (Part 1b single 10 mg fed) was 1 n and the “TEAE Musculoskeletal and connective tissue disorders, participants” value (Part 1b single 10 mg fed) was 1 n. The “TEAE Nausea, participants” value (Part 1b single 10 mg fed) was 1 n, the “TEAE Nervous system disorders” value (Part 1b single 10 mg fed) was 4 n and the “TEAE Polyuria, participants” value (Part 1b single 10 mg fed) was 0 n. The “TEAE Radiculopathy, participants” value (Part 1b single 10 mg fed) was 0 n, the “TEAE Renal and urinary disorders, participants” value (Part 1b single 10 mg fed) was 0 n and the “TEAE Vomiting, participants” value (Part 1b single 10 mg fed) was 1 n. For the same compound, the “Any Grade ≥3 TEAE, participants” value (Part 1b single 40 mg fed) was 1 n, the “Any TEAE, participants” value (Part 1b single 40 mg fed) was 6 n and the “Any treatment-emergent AESI” value (Part 1b single 40 mg fed) was 0 n. For the same compound, the “Any treatment-emergent SAE, participants” value (Part 1b single 40 mg fed) was 1 n, the “TEAE Alanine aminotransferase increased, participants” value (Part 1b single 40 mg fed) was 0 n and the “TEAE Back pain, participants” value (Part 1b single 40 mg fed) was 2 n. The “TEAE Cerebrospinal fluid leakage, participants” value (Part 1b single 40 mg fed) was 3 (50.0) n, the “TEAE Coccydynia, participants” value (Part 1b single 40 mg fed) was 1 n and the “TEAE Constipation, participants” value (Part 1b single 40 mg fed) was 1 n. For the same compound, the “TEAE Dizziness, participants” value (Part 1b single 40 mg fed) was 1 n, the “TEAE Gastrointestinal disorders, participants” value (Part 1b single 40 mg fed) was 2 n and the “TEAE Headache, participants” value (Part 1b single 40 mg fed) was 4 n. The “TEAE Investigations, participants” value (Part 1b single 40 mg fed) was 0 n, the “TEAE Musculoskeletal and connective tissue disorders, participants” value (Part 1b single 40 mg fed) was 2 n and the “TEAE Nausea, participants” value (Part 1b single 40 mg fed) was 1 n. The “TEAE Nervous system disorders” value (Part 1b single 40 mg fed) was 5 n, the “TEAE Polyuria, participants” value (Part 1b single 40 mg fed) was 1 n and the “TEAE Radiculopathy, participants” value (Part 1b single 40 mg fed) was 1 n. For the same compound, the “TEAE Renal and urinary disorders, participants” value (Part 1b single 40 mg fed) was 1 n, the “TEAE Vomiting, participants” value (Part 1b single 40 mg fed) was 1 n and the “PCSAs (vital signs, ECG), relevance” value (Part 1b, all Compound 1 groups) was “not clinically relevant”. For the same compound, the “Any Grade ≥3 TEAE, participants” value (Part 2 10 mg QD 14 days) was 0 n, the “Any TEAE, participants” value (Part 2 10 mg QD 14 days) was 4 n and the “Any treatment-emergent AESI” value (Part 2 10 mg QD 14 days) was 0 n. The “Any treatment-emergent SAE, participants” value (Part 2 10 mg QD 14 days) was 0 n, the “TEAE Nervous system disorders” value (Part 2 10 mg QD, out of 8) was 2 participants and the “Any Grade ≥3 TEAE, participants” value (Part 2 15 mg BID 14 days) was 0 n. For the same compound, the “Any TEAE, participants” value (Part 2 15 mg BID 14 days) was 6 n, the “Any treatment-emergent AESI” value (Part 2 15 mg BID 14 days) was 1 n and the “Any treatment-emergent SAE, participants” value (Part 2 15 mg BID 14 days) was 0 n. For the same compound, the “ALT increase (AESI)” value (Part 2 15 mg BID, one participant, Day 9) was 2.29 ULN, the “ALT increase (AESI), highest” value (Part 2 15 mg BID, one participant, Day 15, 24 hours post last dosing) was 2.71 ULN and the “TEAE Nervous system disorders” value (Part 2 15 mg BID, out of 8) was 1 participants. The “Any Grade ≥3 TEAE, participants” value (Part 2 20 mg BID 14 days) was 0 n, the “Any TEAE, participants” value (Part 2 20 mg BID 14 days) was 4 n and the “Any treatment-emergent AESI” value (Part 2 20 mg BID 14 days) was 0 n. For the same compound, the “Any treatment-emergent SAE, participants” value (Part 2 20 mg BID 14 days) was 0 n, the “TEAE Nervous system disorders” value (Part 2 20 mg BID, out of 8) was 2 participants and the “Any Grade ≥3 TEAE, participants” value (Part 2 20 mg QD 14 days) was 0 n. The “Any TEAE, participants” value (Part 2 20 mg QD 14 days) was 3 n, the “Any treatment-emergent AESI” value (Part 2 20 mg QD 14 days) was 0 n and the “Any treatment-emergent SAE, participants” value (Part 2 20 mg QD 14 days) was 0 n. The “TEAE Nervous system disorders” value (Part 2 20 mg QD, out of 8) was 1 participants, the “SAE and severe TEAE (Grade ≥3)” value (Part 2, 14-day repeated doses) was “no serious adverse event (SAE) and no severe treatment-emergent adverse event” and the “PCSAs for vital signs and ECG parameters, relevance” value (Part 2, all groups) was “not clinically meaningful”. The “Safety and tolerability, overall” value (single dose up to 40 mg fasted and fed, up to 20 mg BID for 14 days) was “safe and well tolerated”.
